The record followed here is US12595252B2, “Inhibitors of SARM1” (DISARM THERAPEUTICS, INC., priority 2019, dated 2026).

pIC50: −log10 of the molar value. Bounds are passed on as bounds.

The target in one test is T1, SARM1 (Homo sapiens, UniProt Q6SZW1).
T1 construct: made in house; host or cells: NRK1-HEK293T cells, transiently transfected; clarified lysate used unpurified
T1 sequence (Q6SZW1 with tags, fused parts or gaps): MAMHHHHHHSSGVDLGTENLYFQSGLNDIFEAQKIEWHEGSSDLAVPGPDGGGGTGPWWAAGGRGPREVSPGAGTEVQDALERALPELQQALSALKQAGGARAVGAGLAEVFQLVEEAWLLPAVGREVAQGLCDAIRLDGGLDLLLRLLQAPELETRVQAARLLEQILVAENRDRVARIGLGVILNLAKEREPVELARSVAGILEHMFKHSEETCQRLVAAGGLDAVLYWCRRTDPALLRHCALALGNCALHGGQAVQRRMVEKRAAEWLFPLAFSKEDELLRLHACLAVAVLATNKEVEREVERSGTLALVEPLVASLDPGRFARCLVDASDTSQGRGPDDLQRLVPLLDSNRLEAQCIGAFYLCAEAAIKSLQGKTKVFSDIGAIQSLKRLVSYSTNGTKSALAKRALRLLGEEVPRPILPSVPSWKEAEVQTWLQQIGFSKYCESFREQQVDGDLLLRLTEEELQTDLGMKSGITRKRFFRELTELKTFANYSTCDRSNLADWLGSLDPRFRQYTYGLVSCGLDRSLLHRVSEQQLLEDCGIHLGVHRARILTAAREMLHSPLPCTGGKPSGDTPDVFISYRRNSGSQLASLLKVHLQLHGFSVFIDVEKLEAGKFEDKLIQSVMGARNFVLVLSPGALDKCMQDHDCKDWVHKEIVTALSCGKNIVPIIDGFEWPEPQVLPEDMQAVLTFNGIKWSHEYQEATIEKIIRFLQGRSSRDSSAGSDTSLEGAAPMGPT
Description: ARM-SAM-TIR SARM1 IC50 assay (NADase activity, NAD+ cleavage).
Conditions: not given
It counts as biochemical. As to the method:
This Example describes an assay of ARM-SAM-TIR NADase activity and use of this assay to measure the efficacy of compounds of Formula I to block SARM1 mediated NAD+ cleavage. This assay is optimized in such a way as to characterize the efficacy of the compounds in Formula I to inhibit SARM1 activity and to calculate an IC50 value for each compound. This assay makes use of full length SARM1, which encompasses the ARM, SAM and TIR domains.
NRK1-HEK293T cells were seeded onto 150 cm^2 plates at 20×10^6 cells per plate. The next day, the cells were transfected with 15 μg ARM-SAM-TIR expression plasmid, SEQ ID NO: 1.
The cultures were supplemented with 1 mM NR at time of transfection to minimize toxicity from ARM-SAM-TIR overexpression. Forty-eight hours after transfection, cells were harvested, pelleted by centrifugation at 1,000 rpm (Sorvall ST 16R centrifuge, Thermo Fisher), and washed once with cold PBS (0.01 M phosphate buffered saline NaCl 0.138 M; KCl 0.0027 M; pH 7.4). The cells were resuspended in PBS with protease inhibitors (cOmplete™ protease inhibitor cocktail, Roche product #11873580001) and cell lysates were prepared by sonication (Branson Sonifer 450, output=3, 20 episodes of stroke). The lysates were centrifuged (12,000×g for 10 min at 4° C.) to remove cell debris and the supernatants (containing ARM-SAM-TIR protein) were stored at −80° C. for later use in the in vitro ARM-SAM-TIR NADase assay (see below). Protein concentration was determined by the Bicinchoninic (BCA) method and used to normalize lysate concentrations.
The enzymatic assay was performed in a 384-well polypropylene plate in Dulbecco's PBS buffer in a final assay volume of 20 μL. ARM-SAM-TIR lysate with a final concentration of 5 μg/mL was pre-incubated with the respective compound at 1% DMSO final assay concentration over 2 h at room temperature. The reaction was initiated by addition of 5 μM final assay concentration of NAD+ as substrate. After a 2 hr room temperature incubation, the reaction was terminated with 40 μL of stop solution of 7.5% trichloroacetic acid in acetonitrile. The NAD+ and ADPR concentrations were analyzed by a RapidFire High Throughput Mass Spectrometry System (Agilent Technologies, Santa Clara, Calif.) using an API4000 triple quadrupole mass spectrometer (AB Sciex Framingham, Mass.).
`COc1cncc(NCc2ccc(C3=CCN(C)CC3)nc2)n1` [Example 124] gave a pIC50 of 4.82 to 5.30.

Staying with this test, now noted: ARM-SAM-TIR lysate 5 μg/mL from NRK1-HEK293T cells; 2 h pre-incubation; 5 μM NAD+; 2 hr room temperature; NAD+ and ADPR by RapidFire MS; read-out: SARM1 IC50.
For the compound `CNc1cncc(NCCCCO)n1` [Example 166], the pIC50 was 4.52 to 4.82. As for `Cn1cc(CNc2cncc(OCCC3CCCO3)n2)cn1` (centres unmarked) [Example 177], the pIC50 was below 4.52. On to `COc1cncc(NCc2ccc(N3CCOCC3)nc2)n1` [Example 77], for which the negative-log IC50 (pIC50) is 4.82 to 5.30. `COc1cncc(NCc2ccc(NC(C)=O)cc2)n1` [Example 47]: the pIC50 was above 5.30. As for `CCOc1cncc(NCc2ccc(N3CCN(CC)CC3)nc2)n1` [Example 3], the pIC50 was 4.82 to 5.30. For `COc1cncc(NCc2ccn(C)c2)n1` [Example 42], the pIC50 was 4.82 to 5.30.

As to `COc1cncc(NCc2cccnc2)n1` [Example 12], the pIC50 was 4.82 to 5.30. `COc1cncc(NCc2ccc(S(=O)(=O)N(C)C)cc2)n1` [Example 156]: the pIC50 is 4.52 to 4.82.

Turning to `COc1cncc(NCc2cnco2)n1` [Example 68], the negative logarithm of the IC50 (pIC50) was 4.82 to 5.30. Take `CNc1cncc(NCCc2cnn(C)c2)n1` [Example 167]: the negative logarithm of the IC50 (pIC50) was 4.52 to 4.82. Regarding `CNc1cc(OC)cnn1` [Example 161], the negative logarithm of the IC50 (pIC50) was below 4.52.

As to `CN(C)c1cncc(NCc2cccnc2)n1` [Example 16], the pIC50 was 4.52 to 4.82. Regarding `COc1cncc(NCc2ccc(S(N)(=O)=O)cc2)n1` [Example 63], the negative logarithm of the IC50 (pIC50) was above 5.30.

In the case of `CCNc1cncc(NCc2cccnc2)n1` [Example 25], the pIC50 was 4.52 to 4.82.

Regarding `COc1cncc(NCC(O)c2cccc(C(F)(F)F)c2)n1` (centres unmarked) [Example 45], the pIC50 was 4.82 to 5.30. As to `CCOc1cncc(NCc2ccc(N3CCN(CC)CC3)cc2)n1` [Example 7], the pIC50 is 4.82 to 5.30. Turning to `COc1cncc(NCc2ccc(-c3ccncc3)nc2)n1` [Example 141], the negative logarithm of the IC50 (pIC50) was 4.82 to 5.30. Regarding `COC(=O)c1ccc(CNc2cncc(OC)n2)cc1` [Example 67], the pIC50 was 4.82 to 5.30. For `CCN1CCC(n2cc(CNc3cncc(OC)n3)cn2)CC1` [Example 120], the pIC50 was above 5.30. `CCCCN1CCN(c2ccc(CNc3cncc(OC)n3)cn2)CC1` [Example 148]: the negative logarithm of the IC50 (pIC50) was 4.82 to 5.30. Take `CCOc1cncc(NCc2ccccc2)n1` [Example 10]: the negative logarithm of the IC50 (pIC50) is 4.52 to 4.82. Consider `Cn1cc(CNc2cncc(O)n2)cn1` [Example 214], for which the negative logarithm of the IC50 (pIC50) is below 4.52. As for `CCNC(=O)n1cc(CNc2cncc(OC)n2)cn1` [Example 149], the pIC50 is 4.82 to 5.30. On the same count and under the same terms, the result for `COc1cc(NCc2cccnc2)[nH]c(=O)c1` [Example 108] reads below 4.52.

As for `Oc1cncc(NCc2cccnc2)c1` [Example 14], the pIC50 is 4.82 to 5.30. Take `COc1cc(NCc2cccnc2)cc(=O)[nH]1` [Example 153]: the pIC50 was below 4.52. Still for that read-out and setting: under `CCCc1cncc(NCc2cccnc2)n1` [Example 200] stands below 4.52.

As for `COc1cncc(NCc2cnc3ccccc3c2)n1` [Example 26], the pIC50 is 4.82 to 5.30. Take `COc1cnnc(NCc2cccnc2)c1` [Example 94]: the negative-log IC50 (pIC50) was 4.52 to 4.82. The same measure, in the same setting: the result for `COc1cncc(NS(=O)(=O)c2cccnc2)n1` [Example 17] reads below 4.52; that for `COc1cncc(NCc2cnn(C)c2)n1` [Example 21], 4.52 to 4.82; that for `Brc1cncc(NCc2cccnc2)n1` [Example 186], below 4.52. Take `COc1cncc(NCc2ccoc2)n1` [Example 58]: the negative logarithm of the IC50 (pIC50) was 4.82 to 5.30. Same read-out and setting: under `N#Cc1cncc(NCc2cccnc2)n1` [Example 154] stands below 4.52; under `COc1cccc(CNc2cncc(OC)n2)c1` [Example 37], 4.82 to 5.30; under `CCOc1cncc(NC(C)=O)n1` [Example 193], below 4.52.

For `CC(C)Oc1cncc(NCc2cccnc2)n1` [Example 13], the negative logarithm of the IC50 (pIC50) was below 4.52. `Cn1cc(CNc2cncc(OCC(F)(F)F)n2)cn1` [Example 117]: the pIC50 is below 4.52. Same read-out and setting: under `COc1cncc(NCc2ccc(F)cc2)n1` [Example 86] stands 4.82 to 5.30. Same read-out and setting: the result for `CCN1CCN(c2cccc(CNc3cncc(OC)n3)c2)CC1` [Example 155] reads 4.82 to 5.30. The same measure, in the same setting: under `COc1cncc(NCc2cccc(S(C)(=O)=O)c2)n1` [Example 127] stands 4.52 to 4.82. With `CCOc1cncc(NCc2ccccn2)n1` [Example 185], the negative logarithm of the IC50 (pIC50) was below 4.52. Take `COc1cncc(NCC2CCOCC2)n1` [Example 41]: the negative logarithm of the IC50 (pIC50) is below 4.52.

For `COc1cnc(C)c(NCc2cccnc2)n1` [Example 204], the pIC50 was below 4.52. Same read-out and setting: the result for `COc1cncc(NCc2ccc(C(=O)O)cc2)n1` [Example 76] reads below 4.52; that for `COc1cncc(NCc2cccc(S(N)(=O)=O)c2)n1` [Example 211], 4.82 to 5.30.

In the case of `COc1cncc(NCc2ccc(N3CCN(c4ccccc4)CC3)nc2)n1` [Example 216], the negative-log IC50 (pIC50) is below 4.52. For the compound `CCN(C)c1cncc(NCc2cccnc2)n1` [Example 30], the pIC50 was below 4.52. Take `CCOc1cncc(NCc2cnccn2)n1` [Example 183]: the negative logarithm of the IC50 (pIC50) was below 4.52. On to `COc1cncc(NCc2cnc(C)o2)n1` [Example 121], for which the negative-log IC50 (pIC50) was 4.82 to 5.30. As to `COc1cncc(NCc2ccc(C3CCN(C)CC3)nc2)n1` [Example 125], the pIC50 was 4.82 to 5.30.

Consider `COc1cncc(NC(C)c2ccccc2)n1` (centres unmarked) [Example 32], for which the negative-log IC50 (pIC50) was 4.52 to 4.82.

As to `COc1cncc(N)n1` [Example 159], the negative logarithm of the IC50 (pIC50) was 4.52 to 4.82.

For `COc1cncc(NCc2nccn2C)n1` [Example 51], the negative-log IC50 (pIC50) was below 4.52. For the compound `CNc1cncc(OCCCN)n1` [Example 172], the pIC50 is below 4.52. On to `CNc1ccnc(NC)n1` [Example 217], for which the pIC50 was below 4.52. Same read-out and setting: the result for `CNC(=O)c1cncc(NCc2cccnc2)n1` [Example 139] reads 4.82 to 5.30; that for `COc1cncc(NCc2cccc(N3CCN(C(=O)OC(C)(C)C)CC3)c2)n1` [Example 123], 4.82 to 5.30; that for `Cn1cc(CNc2cncc(C#N)n2)cn1` [Example 75], below 4.52.

As to `CNc1cncc(Br)n1` [Example 218], the negative logarithm of the IC50 (pIC50) was below 4.52. Turning to `CCN1CCN(c2ccc(CNc3cnccn3)cn2)CC1` [Example 178], the pIC50 was below 4.52. As for `COc1cncc(NCc2cccnc2O)n1` [Example 145], the negative logarithm of the IC50 (pIC50) is below 4.52. The same measure, in the same setting: under `COc1cncc(C(=O)NCc2cccnc2)n1` [Example 24] stands below 4.52; under `CNc1cncc(OCc2ccccc2)n1` [Example 163], 4.82 to 5.30. Take `CNc1cncc(OCCCCO)n1` [Example 174]: the negative logarithm of the IC50 (pIC50) is above 5.30.

In the case of `CNc1cncc(OCCCNC(=O)OC(C)(C)C)n1` [Example 168], the pIC50 is below 4.52. Take `COc1cc(NC(=O)c2cccnc2)cnn1` [Example 136]: the pIC50 is 4.82 to 5.30. Take `CN(C)Cc1ccc(N2CCN(c3cncc(OCC4CCCC4)n3)CC2)nc1` [Example 2]: the pIC50 is below 4.52. For the compound `Cn1cc(CNc2cncc(OCc3ccccc3)n2)cn1` [Example 115], the negative logarithm of the IC50 (pIC50) is below 4.52. As to `COc1cncc(NCc2cccc(C#N)c2)n1` [Example 128], the pIC50 was 4.82 to 5.30.

In the case of `CCc1cncc(NCc2cccnc2)n1` [Example 138], the pIC50 was 4.52 to 4.82. On to `COc1cncc(NCc2cnc3c(c2)ncn3C)n1` [Example 48], for which the negative logarithm of the IC50 (pIC50) was 4.52 to 4.82. With `COc1cncc(NCc2cnn3cccnc23)n1` [Example 89], the pIC50 was 4.52 to 4.82.
